Test results from the supplement of paper PMC12076712.

Key:
Assay in all cases: pIC50, kinobeads binding competition
Conditions in all cases: cell material: Jurkat lysate
CSK = CSK (UniProt P41240)
UniProt P35626 = molecular target: T1, UniProt P35626
T1 sequence (whole entry): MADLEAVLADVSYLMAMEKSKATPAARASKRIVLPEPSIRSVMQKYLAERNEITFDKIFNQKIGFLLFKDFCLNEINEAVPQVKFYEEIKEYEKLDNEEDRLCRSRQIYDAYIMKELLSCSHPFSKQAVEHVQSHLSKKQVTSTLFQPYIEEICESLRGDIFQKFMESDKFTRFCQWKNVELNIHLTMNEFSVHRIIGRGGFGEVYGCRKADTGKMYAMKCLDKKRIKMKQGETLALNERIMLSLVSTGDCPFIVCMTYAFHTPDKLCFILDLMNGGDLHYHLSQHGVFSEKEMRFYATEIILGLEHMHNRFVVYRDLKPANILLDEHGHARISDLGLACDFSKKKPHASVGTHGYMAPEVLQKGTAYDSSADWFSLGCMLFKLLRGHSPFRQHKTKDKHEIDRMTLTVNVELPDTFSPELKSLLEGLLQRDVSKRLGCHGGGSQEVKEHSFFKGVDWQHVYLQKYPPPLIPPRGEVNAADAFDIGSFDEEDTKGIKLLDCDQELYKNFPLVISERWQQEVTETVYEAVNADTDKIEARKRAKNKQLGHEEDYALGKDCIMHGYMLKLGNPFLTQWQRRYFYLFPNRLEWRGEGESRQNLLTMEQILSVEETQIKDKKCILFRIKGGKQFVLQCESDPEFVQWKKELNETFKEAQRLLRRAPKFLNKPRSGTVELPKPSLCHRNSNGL

UniProt Q8NEB9 = molecular target: UniProt Q8NEB9
UniProt Q15418 = molecular target: UniProt Q15418
JAK1 = JAK1 (UniProt P23458)
ACVR1 = molecular target: T2, ACVR1 (UniProt Q04771)
T2 sequence (whole entry): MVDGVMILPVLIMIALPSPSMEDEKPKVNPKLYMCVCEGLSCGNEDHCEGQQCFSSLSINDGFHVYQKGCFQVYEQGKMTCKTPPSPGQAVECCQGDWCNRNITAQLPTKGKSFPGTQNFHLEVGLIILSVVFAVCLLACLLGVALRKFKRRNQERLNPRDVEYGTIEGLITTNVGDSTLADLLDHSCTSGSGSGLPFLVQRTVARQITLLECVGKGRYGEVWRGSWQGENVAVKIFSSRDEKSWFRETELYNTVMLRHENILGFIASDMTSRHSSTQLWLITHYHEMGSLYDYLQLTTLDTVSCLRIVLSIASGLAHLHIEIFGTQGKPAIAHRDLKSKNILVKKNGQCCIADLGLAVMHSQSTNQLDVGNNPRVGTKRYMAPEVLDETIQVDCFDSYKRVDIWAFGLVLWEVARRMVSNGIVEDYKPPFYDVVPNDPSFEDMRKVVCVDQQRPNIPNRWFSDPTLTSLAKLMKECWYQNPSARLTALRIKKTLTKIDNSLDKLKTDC

KSR1 = molecular target: T3, KSR1 (UniProt Q8IVT5)
T3 sequence (whole entry): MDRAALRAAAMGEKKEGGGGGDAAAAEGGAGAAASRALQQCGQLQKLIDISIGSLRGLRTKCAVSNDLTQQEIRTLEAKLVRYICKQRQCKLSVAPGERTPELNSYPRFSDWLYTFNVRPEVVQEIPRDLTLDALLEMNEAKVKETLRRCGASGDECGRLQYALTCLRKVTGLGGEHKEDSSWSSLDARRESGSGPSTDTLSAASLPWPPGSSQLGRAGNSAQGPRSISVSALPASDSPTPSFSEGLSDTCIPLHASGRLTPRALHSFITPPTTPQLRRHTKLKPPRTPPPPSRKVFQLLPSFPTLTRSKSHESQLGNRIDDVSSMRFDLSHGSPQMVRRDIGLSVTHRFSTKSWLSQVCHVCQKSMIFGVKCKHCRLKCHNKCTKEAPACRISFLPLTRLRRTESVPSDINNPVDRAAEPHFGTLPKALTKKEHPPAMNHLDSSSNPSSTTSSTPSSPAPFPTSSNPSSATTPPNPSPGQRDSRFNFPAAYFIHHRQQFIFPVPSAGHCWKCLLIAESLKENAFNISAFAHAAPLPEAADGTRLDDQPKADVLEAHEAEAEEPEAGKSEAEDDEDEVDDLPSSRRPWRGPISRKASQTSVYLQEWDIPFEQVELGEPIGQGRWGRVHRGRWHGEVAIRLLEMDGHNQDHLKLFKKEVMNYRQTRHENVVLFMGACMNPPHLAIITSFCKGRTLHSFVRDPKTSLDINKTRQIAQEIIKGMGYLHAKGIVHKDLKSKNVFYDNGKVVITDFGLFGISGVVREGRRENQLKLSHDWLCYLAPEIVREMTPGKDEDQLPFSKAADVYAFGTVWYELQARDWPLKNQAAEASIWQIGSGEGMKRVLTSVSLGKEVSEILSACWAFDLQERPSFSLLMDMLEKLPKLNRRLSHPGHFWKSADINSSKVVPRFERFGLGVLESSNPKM

MAST3 = MAST3 (UniProt O60307)
UniProt P45985 = molecular target: T4, UniProt P45985
T4 sequence (whole entry): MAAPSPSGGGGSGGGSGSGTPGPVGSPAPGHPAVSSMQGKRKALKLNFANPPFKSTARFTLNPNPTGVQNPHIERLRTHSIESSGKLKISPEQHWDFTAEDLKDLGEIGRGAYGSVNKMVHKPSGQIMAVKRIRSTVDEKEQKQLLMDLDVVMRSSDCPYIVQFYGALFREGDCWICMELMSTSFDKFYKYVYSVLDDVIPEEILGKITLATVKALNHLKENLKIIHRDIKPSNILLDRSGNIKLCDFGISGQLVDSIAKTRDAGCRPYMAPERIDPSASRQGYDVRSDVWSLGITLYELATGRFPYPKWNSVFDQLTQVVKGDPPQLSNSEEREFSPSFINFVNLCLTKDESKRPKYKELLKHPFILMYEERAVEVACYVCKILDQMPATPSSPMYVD

Measured: pIC50

Sequence of CSK (P41240 whole entry, looked up): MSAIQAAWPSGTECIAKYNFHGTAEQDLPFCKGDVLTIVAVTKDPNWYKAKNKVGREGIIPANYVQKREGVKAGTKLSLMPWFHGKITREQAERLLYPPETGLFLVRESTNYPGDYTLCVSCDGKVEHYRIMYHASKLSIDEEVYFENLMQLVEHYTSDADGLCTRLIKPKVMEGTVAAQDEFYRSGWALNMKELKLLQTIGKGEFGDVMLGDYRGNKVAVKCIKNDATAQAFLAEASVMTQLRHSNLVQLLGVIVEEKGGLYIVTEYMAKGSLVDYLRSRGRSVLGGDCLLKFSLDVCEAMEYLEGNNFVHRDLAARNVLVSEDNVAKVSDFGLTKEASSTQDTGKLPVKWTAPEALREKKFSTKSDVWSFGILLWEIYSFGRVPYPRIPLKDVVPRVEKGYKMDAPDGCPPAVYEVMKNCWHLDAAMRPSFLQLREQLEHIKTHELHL
Sequence of UniProt Q8NEB9 (Q8NEB9 whole entry): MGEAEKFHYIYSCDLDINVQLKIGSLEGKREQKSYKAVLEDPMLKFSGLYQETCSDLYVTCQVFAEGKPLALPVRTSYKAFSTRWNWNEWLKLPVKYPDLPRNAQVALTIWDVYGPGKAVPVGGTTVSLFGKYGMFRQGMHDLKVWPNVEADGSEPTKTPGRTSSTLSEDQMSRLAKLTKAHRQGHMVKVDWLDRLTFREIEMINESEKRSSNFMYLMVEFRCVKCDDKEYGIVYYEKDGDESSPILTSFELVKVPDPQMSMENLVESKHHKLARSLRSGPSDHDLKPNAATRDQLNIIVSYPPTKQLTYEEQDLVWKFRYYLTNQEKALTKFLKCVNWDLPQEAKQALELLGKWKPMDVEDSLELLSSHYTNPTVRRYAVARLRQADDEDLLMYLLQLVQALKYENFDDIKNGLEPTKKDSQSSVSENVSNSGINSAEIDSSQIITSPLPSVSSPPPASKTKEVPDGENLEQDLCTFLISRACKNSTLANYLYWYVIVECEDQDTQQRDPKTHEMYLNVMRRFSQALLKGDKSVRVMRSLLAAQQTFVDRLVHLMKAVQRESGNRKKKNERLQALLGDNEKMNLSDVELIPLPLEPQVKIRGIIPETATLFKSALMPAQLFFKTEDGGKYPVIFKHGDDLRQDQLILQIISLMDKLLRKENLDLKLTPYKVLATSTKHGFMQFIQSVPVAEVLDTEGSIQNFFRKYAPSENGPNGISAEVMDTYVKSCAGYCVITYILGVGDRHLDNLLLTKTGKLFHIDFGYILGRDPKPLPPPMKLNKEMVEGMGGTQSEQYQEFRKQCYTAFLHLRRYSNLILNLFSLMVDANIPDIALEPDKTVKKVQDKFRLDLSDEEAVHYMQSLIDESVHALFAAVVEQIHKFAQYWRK
Sequence of MAST3 (O60307 whole entry): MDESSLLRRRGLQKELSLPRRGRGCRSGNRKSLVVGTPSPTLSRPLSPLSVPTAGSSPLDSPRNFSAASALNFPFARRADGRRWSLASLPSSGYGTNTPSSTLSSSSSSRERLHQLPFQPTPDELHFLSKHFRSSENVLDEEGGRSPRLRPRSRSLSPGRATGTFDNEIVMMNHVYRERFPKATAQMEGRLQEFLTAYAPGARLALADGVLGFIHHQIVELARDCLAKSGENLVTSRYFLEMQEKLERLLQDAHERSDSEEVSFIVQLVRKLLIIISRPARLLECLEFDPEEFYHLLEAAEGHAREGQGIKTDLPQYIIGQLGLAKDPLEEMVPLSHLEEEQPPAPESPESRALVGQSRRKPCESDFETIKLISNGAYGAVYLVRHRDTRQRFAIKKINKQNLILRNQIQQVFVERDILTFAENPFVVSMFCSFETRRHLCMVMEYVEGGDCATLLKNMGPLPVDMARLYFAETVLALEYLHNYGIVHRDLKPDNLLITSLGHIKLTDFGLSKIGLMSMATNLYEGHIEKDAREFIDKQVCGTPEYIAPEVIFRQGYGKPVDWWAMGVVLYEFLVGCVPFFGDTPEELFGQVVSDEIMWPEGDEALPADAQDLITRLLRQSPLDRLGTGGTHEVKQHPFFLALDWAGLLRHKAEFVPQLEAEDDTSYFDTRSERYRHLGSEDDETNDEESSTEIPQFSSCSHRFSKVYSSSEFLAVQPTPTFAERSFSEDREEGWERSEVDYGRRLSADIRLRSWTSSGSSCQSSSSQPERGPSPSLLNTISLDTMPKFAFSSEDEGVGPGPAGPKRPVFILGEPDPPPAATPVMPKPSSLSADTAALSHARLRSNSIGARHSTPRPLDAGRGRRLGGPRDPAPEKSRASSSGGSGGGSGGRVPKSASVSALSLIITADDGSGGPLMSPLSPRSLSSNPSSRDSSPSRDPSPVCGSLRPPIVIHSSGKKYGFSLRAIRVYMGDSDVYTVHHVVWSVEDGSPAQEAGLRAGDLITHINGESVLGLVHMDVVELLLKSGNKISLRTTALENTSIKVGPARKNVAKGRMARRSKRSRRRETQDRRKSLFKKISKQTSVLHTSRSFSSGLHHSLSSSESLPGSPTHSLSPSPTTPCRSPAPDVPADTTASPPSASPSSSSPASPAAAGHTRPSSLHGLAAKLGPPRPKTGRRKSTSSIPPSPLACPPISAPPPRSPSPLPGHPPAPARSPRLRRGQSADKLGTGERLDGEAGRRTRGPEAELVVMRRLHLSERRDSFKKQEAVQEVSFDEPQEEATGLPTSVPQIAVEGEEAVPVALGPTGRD
Sequence of JAK1 (P23458 whole entry): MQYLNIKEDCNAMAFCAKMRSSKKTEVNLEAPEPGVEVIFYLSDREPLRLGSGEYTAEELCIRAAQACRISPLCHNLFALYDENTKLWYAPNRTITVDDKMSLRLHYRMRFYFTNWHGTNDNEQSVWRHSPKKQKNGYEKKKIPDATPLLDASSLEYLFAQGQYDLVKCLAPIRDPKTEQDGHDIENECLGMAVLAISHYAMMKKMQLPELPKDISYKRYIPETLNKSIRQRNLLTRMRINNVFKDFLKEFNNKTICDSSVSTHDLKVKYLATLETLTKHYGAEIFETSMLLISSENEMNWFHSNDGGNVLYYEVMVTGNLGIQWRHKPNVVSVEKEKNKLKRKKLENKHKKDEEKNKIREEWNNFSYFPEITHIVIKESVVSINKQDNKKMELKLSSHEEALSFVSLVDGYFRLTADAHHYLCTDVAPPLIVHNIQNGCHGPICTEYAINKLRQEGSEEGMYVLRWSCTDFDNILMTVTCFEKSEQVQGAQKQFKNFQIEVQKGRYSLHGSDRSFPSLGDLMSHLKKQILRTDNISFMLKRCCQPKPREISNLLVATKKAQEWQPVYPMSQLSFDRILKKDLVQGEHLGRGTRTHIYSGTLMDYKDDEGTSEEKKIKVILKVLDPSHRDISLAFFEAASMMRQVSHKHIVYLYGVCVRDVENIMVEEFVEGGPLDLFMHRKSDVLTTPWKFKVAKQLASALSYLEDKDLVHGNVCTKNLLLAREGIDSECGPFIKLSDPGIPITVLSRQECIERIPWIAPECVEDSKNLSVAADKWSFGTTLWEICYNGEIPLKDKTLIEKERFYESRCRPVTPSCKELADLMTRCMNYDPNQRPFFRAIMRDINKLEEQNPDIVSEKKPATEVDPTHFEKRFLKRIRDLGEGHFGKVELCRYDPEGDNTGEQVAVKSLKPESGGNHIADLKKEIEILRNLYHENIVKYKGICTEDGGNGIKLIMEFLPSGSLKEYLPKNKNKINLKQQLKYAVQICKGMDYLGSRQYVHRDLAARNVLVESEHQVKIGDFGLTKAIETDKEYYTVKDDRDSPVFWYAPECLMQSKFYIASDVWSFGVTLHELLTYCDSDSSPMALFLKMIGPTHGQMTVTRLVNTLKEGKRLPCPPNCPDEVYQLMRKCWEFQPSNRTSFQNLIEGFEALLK
Sequence of UniProt Q15418 (Q15418 whole entry): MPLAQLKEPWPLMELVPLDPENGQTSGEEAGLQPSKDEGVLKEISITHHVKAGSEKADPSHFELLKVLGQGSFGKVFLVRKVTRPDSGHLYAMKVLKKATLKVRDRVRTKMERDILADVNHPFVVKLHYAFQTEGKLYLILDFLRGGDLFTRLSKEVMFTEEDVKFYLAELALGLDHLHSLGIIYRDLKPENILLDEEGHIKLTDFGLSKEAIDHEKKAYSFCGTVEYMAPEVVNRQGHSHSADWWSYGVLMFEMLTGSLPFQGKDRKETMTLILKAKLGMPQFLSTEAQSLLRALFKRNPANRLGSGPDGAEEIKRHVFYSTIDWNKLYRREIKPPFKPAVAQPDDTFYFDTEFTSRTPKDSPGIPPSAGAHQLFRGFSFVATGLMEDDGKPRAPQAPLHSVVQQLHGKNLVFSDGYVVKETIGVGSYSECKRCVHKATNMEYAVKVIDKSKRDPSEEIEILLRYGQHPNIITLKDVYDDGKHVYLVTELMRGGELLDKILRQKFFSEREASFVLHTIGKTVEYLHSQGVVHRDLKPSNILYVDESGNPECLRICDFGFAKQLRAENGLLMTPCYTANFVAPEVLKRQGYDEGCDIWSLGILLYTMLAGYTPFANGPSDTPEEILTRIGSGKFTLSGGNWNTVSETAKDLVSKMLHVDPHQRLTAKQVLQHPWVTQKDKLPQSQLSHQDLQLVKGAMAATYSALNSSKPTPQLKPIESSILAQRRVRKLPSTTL

CCc1cnn2c(NCc3ccc[n+]([O-])c3)cc(N3CCCC[C@H]3CCO)nc12 [dinaciclib]
< 4.52: all assays above
